Structures are written as SMILES.

By melting point is commonly meant the temperature, or range, at which the solid turns liquid. With `CCC(=O)Nc1cc(-c2sc(CCSC)nc2-c2cccc(C)c2)ccn1` [H 102-1, N-[4 [4 (3 methylphenyl)-2 [2 (methylthio)ethyl]-1,3 thiazol-5 yl]-2-pyridyl]propionamide], the melting point was 85 to 86 °C.
The value for `CCC(=O)Nc1cc(-c2sc(CCSC)nc2-c2cccc(Cl)c2)ccn1` [H 102-2, N-[4 [4 (3 chlorophenyl)-2 [2 (methylthio)ethyl]-1,3 thiazol-5 yl]-2-pyridyl]propionamide] was 91 to 92 °C.
Next, `CCC(=O)Nc1cc(-c2sc(CSC)nc2-c2cccc(Cl)c2)ccn1` [H 102-3, N-[4 [4 (3 chlorophenyl)-2 (methylthio)methyl-1,3 thiazol-5 yl]-2 pyridyl]propionamide]: 118 to 119 °C; `CCC(=O)Nc1cc(-c2sc(C(C)(F)F)nc2-c2cccc(Cl)c2)ccn1` [H 102-4, N-[4 [4 (3 chlorophenyl)-2 (1,1 difluoroethyl)-1,3 thiazol-5 yl]-2 pyridyl]propionamide]: 141 to 142 °C.
The value for `CCC(=O)Nc1cc(-c2sc(C(C)OC(=O)c3ccccc3)nc2-c2cccc(C)c2)ccn1` (stereo not drawn) [H 102-5, 1 [4 (3 methylphenyl)-5-(2 propionylamino-4 pyridyl)-1,3 thiazol-2 yl]ethyl benzoate] was 102 to 103 °C; that for `CCC(=O)Nc1cc(-c2sc(C(C)OC(=O)c3ccccc3)nc2-c2cccc(Cl)c2)ccn1` (stereo not drawn) [H 102-6, 1 [4 (3 chlorophenyl)-5-(2 propionylamino-4 pyridyl)-1,3 thiazol-2 yl]ethyl benzoate] was 124 to 127 °C.
Compound `CC(=O)Nc1cc(-c2sc(C(C)OC(=O)c3ccccc3)nc2-c2cccc(Cl)c2)ccn1` (stereo not drawn) [H 103-1, 1 [5 (2 acetylamino-4-pyridyl)-4 (3 chlorophenyl)-1,3 thiazol-2 yl]ethyl benzoate] came in with a melting point of 152 to 154 °C.
The value for `CCOC(=O)Cc1nc(-c2cccc(Cl)c2)c(-c2ccnc(NC(C)=O)c2)s1` [H 103-2, ethyl [5 (2 acetylamino-4-pyridyl)-4 (3 chlorophenyl)-1,3 thiazol-2 yl]acetate] was 99 to 100 °C; that for `CCC(=O)Nc1cc(-c2sc(C(C)O)nc2-c2cccc(C)c2)ccn1` (stereo not drawn) [H 104, N-[4 [2 (1 hydroxyethyl)-4 (3 methylphenyl)-1,3 thiazol-5 yl]-2 pyridyl]propionamide] was 115 to 116 °C; that for `CCC(=O)Nc1cc(-c2sc(C(C)O)nc2-c2cccc(Cl)c2)ccn1` (stereo not drawn) [H 105, N-[4 [4 (3 chlorophenyl)-2-(1 hydroxyethyl)-1,3 thiazol-5 yl]-2 pyridyl]propionamide] was 131 to 132 °C.
The value for `CCC(=O)Nc1cc(-c2sc(C(C)=O)nc2-c2cccc(C)c2)ccn1` [H 106, N-[4 [2 acetyl-4 (3 methylphenyl)-1,3 thiazol-5 yl]-2-pyridyl]propionamide] was 121 to 123 °C.
Next, `CCC(=O)Nc1cc(-c2sc(C(C)=O)nc2-c2cccc(Cl)c2)ccn1` [H 107, N-[4 [2 acetyl-4 (3-chlorophenyl)-1,3 thiazol-5 yl]-2 pyridyl]propionamide]: 115 to 117 °C; `CCNC(=O)Nc1cc(-c2sc(CC)nc2-c2cccc(C)c2)ccn1` [H 108, N-ethyl-N′-[4 [2 ethyl-4 (3 methylphenyl)-1,3 thiazol-5 yl]-2-pyridyl]urea]: 160 to 162 °C.
The compound `CCNC(=O)Nc1cc(-c2sc(CC)nc2-c2cccc(Cl)c2)ccn1` [H 109, N-[4 [4 (3 chlorophenyl)-2-ethyl-1,3 thiazol-5 yl]-2 pyridyl]-N′-ethyl-urea] gave a melting point of 177 to 180 °C.
`CC(=O)Nc1cc(-c2sc(C(C)OC(=O)c3ccccc3)nc2-c2cccc(C)c2)ccn1` (stereo not drawn) [H 110, 1 [5 (2 acetylamino-4-pyridyl)-4 (3 methylphenyl)-1,3 thiazol-2 yl]ethyl benzoate] displayed a melting point of 110 to 113 °C.
Next, `CC(=O)Nc1cc(-c2sc(C(C)O)nc2-c2cccc(C)c2)ccn1` (stereo not drawn) [H 111-1, N-[4 [2 (1 hydroxyethyl)-4-(3 methylphenyl)-1,3 thiazol-5 yl]-2 pyridyl]acetamide]: 99 to 102 °C.
Next, `CC(=O)Nc1cc(-c2sc(C(C)O)nc2-c2cccc(Cl)c2)ccn1` (stereo not drawn) [H 111-2, N-[4 [4 (3 chlorophenyl)-2-(1 hydroxyethyl)-1,3 thiazol-5 yl]-2 pyridyl]acetamide]: 142 to 145 °C; `CC(=O)Nc1cc(-c2sc(C(C)=O)nc2-c2cccc(Cl)c2)ccn1` [H 112, N-[4 [2 acetyl-4 (3-chlorophenyl)-1,3 thiazol-5 yl]-2 pyridyl]acetamide]: 180 to 183 °C; `CSCc1nc(-c2cccc(C)c2)c(-c2ccnc(N)c2)s1` [H 113-1, 4 [4 (3 methylphenyl)-2-(methylthio)methyl-1,3 thiazol-5 yl]-2 pyridylamine]: 113 to 114 °C.
The value for `Cc1cccc(-c2nc(C(C)(F)F)sc2-c2ccnc(N)c2)c1` [H 113-2, 4 [2 (1,1 difluoroethyl)-4 (3 methylphenyl)-1,3 thiazol-5 yl]-2 pyridylamine] was 140 to 141 °C.
For the compound `CCc1nc(-c2cccc(C)c2)c(-c2ccnc(NC(=O)c3ccsc3)c2)s1` [L 39-1, N-[4 [2 ethyl-4 (3-methylphenyl)-1,3 thiazol-5 yl]-2 pyridyl]-3-thiophenecarboxamide], the melting point lay within 99 to 101 °C.
Take `CCc1nc(-c2cccc(C)c2)c(-c2ccnc(NC(=O)c3ccc(OC)cc3)c2)s1` [L 39-2, N-[4 [2 ethyl-4 (3-methylphenyl)-1,3 thiazol-5 yl]-2 pyridyl]-4 methoxybenzamide]: the melting point is 124 to 125 °C.
`CCc1nc(-c2cccc(C)c2)c(-c2ccnc(NC(=O)c3ccc(C)cc3)c2)s1` [L 39-3, N-[4 [2 ethyl-4 (3-methylphenyl)-1,3 thiazol-5 yl]-2 pyridyl]-4 methylbenzamide]: the melting point lay in the range of 105 to 106 °C.
`CCc1nc(-c2cccc(C)c2)c(-c2ccnc(NC(=O)c3cccc(F)c3)c2)s1` [L 39-4, N-[4 [2 ethyl-4 (3-methylphenyl)-1,3 thiazol-5 yl]-2 pyridyl]-3 fluorobenzamide]: the melting point was 101 to 102 °C.
Next, `CCc1nc(-c2cccc(C)c2)c(-c2ccnc(NC(=O)c3ccc(F)cc3)c2)s1` [L 39-5, N-[4 [2 ethyl-4 (3-methylphenyl)-1,3 thiazol-5 yl]-2 pyridyl]-4 fluorobenzamide]: 110 to 111 °C.
`CCc1nc(-c2cccc(C)c2)c(-c2ccnc(NC(=O)c3cc(Cl)cc(Cl)c3)c2)s1` [L 39-6, 3,5 dichloro-N-[4 [2 ethyl-4 (3 methylphenyl)-1,3 thiazol-5 yl]-2 pyridyl]benzamide] showed a melting point of 77 to 78 °C.
The value for `Cc1cccc(-c2nc(C3CCN(C)CC3)sc2-c2ccnc(NC(=O)c3ccccc3)c2)c1` [L 44, N-[4 [4 (3 methylphenyl)-2 (1 methylpiperidin-4 yl)-1,3-thiazol-5 yl]-2 pyridyl]benzamide] was 151 to 152 °C; that for `Cc1cccc(-c2nc(N(C)C(=O)c3cccnc3)sc2-c2ccnc(NC3CCCC3)c2)c1` [L 65-3, N-methyl-N-[5 (2-cyclopentylamino-4 pyridyl)-4 (3 methylphenyl)-1,3 thiazol-2-yl]nicotinamide] was 150 to 151 °C.
For the compound `Cc1cccc(-c2nc(N(C)C(=O)c3cccnc3)sc2-c2ccnc(NC3CCCCC3)c2)c1` [L 65-4, N-methyl-N-[5 (2-cyclohexylamino-4 pyridyl)-4 (3 methylphenyl)-1,3 thiazol-2-yl]nicotinamide], the melting point is 135 to 136 °C.
The compound `Cc1cccc(-c2nc(N(C)C(=O)c3ccc(C)nc3)sc2-c2ccnc(NC3CCCC3)c2)c1` [L 67-2, N-[5 (2 cyclopentylamino-4-pyridyl)-4 (3 methylphenyl)-1,3 thiazol-2 yl]-N, 6-dimethylnicotinamide] had a melting point of 176 to 177 °C.
As to `Cc1nc(-c2cccc(Cl)c2)c(-c2ccnc(NC(=O)Cc3ccccc3)c2)s1` [L 68-3, N-[4 [4 (3 chlorophenyl)-2-methyl-1,3 thiazol-5 yl]-2 pyridyl]phenylacetamide], the melting point was 99 to 101 °C.
Next, `Cc1cccc(-c2nc(C)sc2-c2ccnc(NC(=O)Cc3ccccc3)c2)c1` [L 68-5, N-[4 [2 methyl-4 (3-methylphenyl)-1,3 thiazol-5 yl]-2 pyridyl]phenylacetamide]: 114 to 115 °C; `Cc1cccc(-c2ncsc2-c2ccnc(NC(=O)Cc3ccccc3)c2)c1` [L 68-6, N-[4 [4 (3 methylphenyl)-1,3 thiazol-5 yl]-2 pyridyl]phenylacetamide]: 135 to 136 °C.
Next, `CCc1nc(-c2ccc(F)cc2)c(-c2ccnc(NC(=O)Cc3ccccc3)c2)s1` [L 68-7, N-[4 [2 ethyl-4 (4-fluorophenyl)-1,3 thiazol-5 yl]-2 pyridyl]phenylacetamide]: 178 to 179 °C.
Compound `CCc1nc(-c2ccc(C)cc2)c(-c2ccnc(NC(=O)Cc3ccccc3)c2)s1` [L 68-8, N-[4 [2 ethyl-4 (4-methylphenyl)-1,3 thiazol-5 yl]-2 pyridyl]phenylacetamide] gave a melting point of 128 to 129 °C.
The value for `CCc1nc(-c2ccccc2)c(-c2ccnc(NC(=O)Cc3ccccc3)c2)s1` [L 68-9, N-[4 (2 ethyl-4 phenyl-1,3-thiazol-5 yl)-2 pyridyl]phenylacetamide] was 162 to 163 °C; that for `CCc1nc(-c2cccc(OC)c2)c(-c2ccnc(NC(=O)Cc3ccccc3)c2)s1` [L 68-10, N-[4 [2 ethyl-4 (3-methoxyphenyl)-1,3 thiazol-5 yl]-2 pyridyl)phenylacetamide] was 128 to 129 °C.
Consider `CCc1nc(-c2cccs2)c(-c2ccnc(NC(=O)c3ccccc3)c2)s1` [L 70-4, N-[4 [2 ethyl-4 (2-thienyl)-1,3 thiazol-5 yl]-2 pyridyl]benzamide], for which the melting point was in the range of 116 to 117 °C.
Next, `CC(=O)Nc1nc(-c2cc(C)cc(C)c2)c(-c2ccncc2)s1` [Reference Example A 23-128, N-[4-(3,5-dimethylphenyl)-5-(4-pyridyl)-1,3-thiazol-2-yl]acetamide]: 284 to 286 °C.

The values above are taken from US20050080113A1, “Medicinal compositions” (priority 2001, published 2005).
